Measured values published in patent US20190153024A1, “NOVEL SALTS AND POLYMORPHS OF SCY-078” (priority 2015, published 2019).

Assays:
Assay type in all cases: physicochemical
[1] = Dynamic Vapor Sorption (DVS) water uptake; settings: for water uptake (DVS): 25° C., 80% RH; for solid form by XRPD after DVS: after DVS experiment
Experimental: Dynamic Vapor Sorption (DVS)—The term “DVS” means the procedure described in below. The relative humidity at 25° C. was calibrated against deliquescence point of LiCl, Mg(NO3)2 and KCl.
The DVS of SCY-078 salts were tested according to the above method, using a 10-20 mg sample size. The DVS was measured using a Surface Measurement Systems (SMS) DVS Intrinsic.

[2] = pH value of saturated SCY-078 salt solutions in water; settings: saturated salt solution in H2O, room temperature; for pH 1 hr: equilibrated 1 hour; for pH 24 hrs: equilibrated 24 hours
Experimental: To test the pH, a solution of each compound was equilibrated at room temperature using a rolling incubator (25 rpm) for 1 hour and 24 hours before measurement.

[3] = Chemical and physical stability of SCY-078 salts on storage (25° C./60% RH, 40° C./75% RH, 60° C.); settings: for physical and chemical stability: Type M 4 days, Type S 1 week
Text: For all compounds tested other than the trifluoroacetate salts (Type A and B) and the HCl Type I and II salts, the conditions and parameters used for measuring solubility are shown in Table 2A and for measuring stability are showing in Table 3A. The conditions and parameters used for the solubility of the trifluoroacetate salts (Type A and B) and the HCl Type I and II salts are shown in Table 2B and for stability are shown in Table 3B.

[4] = 25° C./60% RH, open dish, 1 week
[5] = 40° C./75% RH, open dish, 1 week

Structure (SMILES) | water uptake (DVS) [1] | solid form by XRPD after DVS [1] | pH 1 hr [2] | pH 24 hrs [2] | Impurity % by HPLC [3, 4] | Impurity % by HPLC [3, 5] | Impurity % by HPLC ([3]; 60° C., closed dish, 1 week) | Impurity % by HPLC ([3]; Initial) | physical and chemical stability ([3]; closed dish 60° C.) | physical and chemical stability ([3]; open dish 25° C., 60% RH) | physical and chemical stability ([3]; open dish 40° C., 75% RH) | time stable when stored ([3]; 25° C. and 60% relative humidity) | time stable when stored ([3]; 40° C. and 75% relative humidity) | time stable when stored ([3]; 60° C.)
CC(C)[C@@H](C)[C@@]1(C)CC[C@]2(C)[C@H]3CC[C@@H]4[C@@]5(COC[C@]4(C)[C@@H](OC[C@](C)(N)C(C)(C)C)[C@H](n4ncnc4-c4ccncc4)C5)C3=CC[C@@]2(C)[C@@H]1C(=O)O.O=C(O)/C=C/C(=O)O [SCY-078 fumarate Type A] | 2.5% | no form change | 4.4 | 3.8 | 0.09% | 0.10% | 0.10% | 0.12% |  |  |  |  |  | 
CC(C)[C@@H](C)[C@@]1(C)CC[C@]2(C)[C@H]3CC[C@@H]4[C@@]5(COC[C@]4(C)[C@@H](OC[C@](C)(N)C(C)(C)C)[C@H](n4ncnc4-c4ccncc4)C5)C3=CC[C@@]2(C)[C@@H]1C(=O)O.O=C(O)CNC(=O)c1ccccc1.O=C(O)CNC(=O)c1ccccc1 [SCY-078 hippurate Type B] | ~3.5% | converted to SCY-078 hippurate Type A | 4.6 | 4.2 |  |  |  |  |  |  |  |  |  | 
CC(C)[C@@H](C)[C@@]1(C)CC[C@]2(C)[C@H]3CC[C@@H]4[C@@]5(COC[C@]4(C)[C@@H](OC[C@](C)(N)C(C)(C)C)[C@H](n4ncnc4-c4ccncc4)C5)C3=CC[C@@]2(C)[C@@H]1C(=O)O.CS(=O)(=O)O [SCY-078 mesylate Type A] | 11.5% | no form change | 3.4 | 3.6 |  |  |  |  |  |  |  |  |  | 
CC(C)[C@@H](C)[C@@]1(C)CC[C@]2(C)[C@H]3CC[C@@H]4[C@@]5(COC[C@]4(C)[C@@H](OC[C@](C)(N)C(C)(C)C)[C@H](n4ncnc4-c4ccncc4)C5)C3=CC[C@@]2(C)[C@@H]1C(=O)O.O=C(O)CC(O)(CC(=O)O)C(=O)O [SCY-078 citrate Type S] | 8.2% | peak shifts |  |  |  |  |  |  | physically and chemically stable | Diffraction peak shifts were observed | Diffraction peak shifts were observed |  |  | 
CC(C)[C@@H](C)[C@@]1(C)CC[C@]2(C)[C@H]3CC[C@@H]4[C@@]5(COC[C@]4(C)[C@@H](OC[C@](C)(N)C(C)(C)C)[C@H](n4ncnc4-c4ccncc4)C5)C3=CC[C@@]2(C)[C@@H]1C(=O)O.O=P(O)(O)O [SCY-078 phosphate Type A] | 12.5% | no form change | 3.4 | 3.6 |  |  |  |  |  |  |  |  |  | 
CC(C)[C@@H](C)[C@@]1(C)CC[C@]2(C)[C@H]3CC[C@@H]4[C@@]5(COC[C@]4(C)[C@@H](OC[C@](C)(N)C(C)(C)C)[C@H](n4ncnc4-c4ccncc4)C5)C3=CC[C@@]2(C)[C@@H]1C(=O)O.O=C(O)CC(O)(CC(=O)O)C(=O)O [SCY-078 citrate Type A] |  | No form change | 3.5 | 3.8 | 0.09% | 0.10% | 0.17% | 0.34% |  |  |  | at least 1 week | at least 1 week | at least 1 week
